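Method: 48-hour compound exposure of cells in 96-well plates, five concentrations, linear interpolation of endpoints. Definition used: TGI = concentration required for complete inhibition of growth.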
Tests used:
Assay in all cases: NCI anticancer screen, dose series, 48 h
OVCAR-8 ovarian = tested on: OVCAR-8 ovarian
SF-295 CNS = tested on: SF-295 CNS
MDA-N = tested on: MDA-N
NCI-H522 lung = tested on: NCI-H522 lung
786-0 renal = tested on: 786-0 renal
TK-10 renal = tested on: TK-10 renal
HCT-15 colon = tested on: HCT-15 colon
MOLT-4 leukemia = tested on: MOLT-4 leukemia
U251 CNS = tested on: U251 CNS
NCI-H23 lung = tested on: NCI-H23 lung
CAKI-1 renal = tested on: CAKI-1 renal
OVCAR-3 ovarian = tested on: OVCAR-3 ovarian
SK-MEL-5 melanoma = tested on: SK-MEL-5 melanoma
SNB-19 CNS = tested on: SNB-19 CNS
CCRF-CEM leukemia = tested on: CCRF-CEM leukemia
MCF7 breast = tested on: MCF7 breast
BT-549 breast = tested on: BT-549 breast
NCI/ADR-RES ovarian = tested on: NCI/ADR-RES ovarian
HL-60(TB) leukemia = tested on: HL-60(TB) leukemia
A498 renal = tested on: A498 renal
HOP-62 NSCLC = tested on: HOP-62 NSCLC
RXF 393 renal = tested on: RXF 393 renal
UACC-62 melanoma = tested on: UACC-62 melanoma
RPMI-8226 leukemia = tested on: RPMI-8226 leukemia
SK-MEL-28 melanoma = tested on: SK-MEL-28 melanoma
SK-OV-3 ovarian = tested on: SK-OV-3 ovarian
KM12 colon = tested on: KM12 colon
SN12C renal = tested on: SN12C renal
MALME-3M melanoma = tested on: MALME-3M melanoma
NCI-H460 lung = tested on: NCI-H460 lung
K-562 leukemia = tested on: K-562 leukemia
OVCAR-4 ovarian = tested on: OVCAR-4 ovarian
UO-31 renal = tested on: UO-31 renal
HCC-2998 colon = tested on: HCC-2998 colon
ACHN renal = tested on: ACHN renal
PC-3 prostate = tested on: PC-3 prostate
T-47D breast = tested on: T-47D breast
NCI-H226 lung = tested on: NCI-H226 lung
IGROV1 ovarian = tested on: IGROV1 ovarian
HCT-116 colon = tested on: HCT-116 colon
HOP-92 NSCLC = tested on: HOP-92 NSCLC
MDA-MB-435 = tested on: MDA-MB-435
LOX IMVI melanoma = tested on: LOX IMVI melanoma
OVCAR-5 ovarian = tested on: OVCAR-5 ovarian
A549 NSCLC = tested on: A549 NSCLC
SF-539 CNS = tested on: SF-539 CNS
COLO 205 colon = tested on: COLO 205 colon
EKVX NSCLC = tested on: EKVX NSCLC
DU-145 prostate = tested on: DU-145 prostate
HT29 colon = tested on: HT29 colon
UACC-257 melanoma = tested on: UACC-257 melanoma
HS 578T breast = tested on: HS 578T breast
SF-268 CNS = tested on: SF-268 CNS
SW-620 colon = tested on: SW-620 colon
SNB-75 CNS = tested on: SNB-75 CNS
SK-MEL-2 melanoma = tested on: SK-MEL-2 melanoma
M14 melanoma = tested on: M14 melanoma
MDA-MB-231 breast = tested on: MDA-MB-231 breast
SR leukemia = tested on: SR leukemia

Compound `O=c1[nH]c2cc(C(F)(F)F)ccc2nc1CBr` has a TGI (OVCAR-8 ovarian) of 39.6 µM, a TGI (SF-295 CNS) of 28.9 µM and a TGI (MDA-N) of 26.9 µM. The TGI (NCI-H522 lung) was 1.52 µM, the TGI (786-0 renal) was 19.2 µM and the TGI (TK-10 renal) was 27.9 µM. For the same compound, the TGI (HCT-15 colon) was 33.3 µM, the TGI (MOLT-4 leukemia) was over 100 µM and the TGI (U251 CNS) was 24.8 µM. The TGI (NCI-H23 lung) was 38.6 µM, the TGI (CAKI-1 renal) was 17.5 µM and the TGI (OVCAR-3 ovarian) was 23.7 µM. The TGI (SK-MEL-5 melanoma) was 28.5 µM, the TGI (SNB-19 CNS) was 32.7 µM and the TGI (CCRF-CEM leukemia) was 5.73 µM. The TGI (MCF7 breast) was 21.7 µM, the TGI (BT-549 breast) was 27.5 µM and the TGI (NCI/ADR-RES ovarian) was 50.4 µM. For the same compound, the TGI (HL-60(TB) leukemia) was 14.3 µM, the TGI (A498 renal) was 33 µM and the TGI (HOP-62 NSCLC) was 28.7 µM. For the same compound, the TGI (RXF 393 renal) was 25.2 µM, the TGI (UACC-62 melanoma) was 23.2 µM and the TGI (RPMI-8226 leukemia) was 69.8 µM. The TGI (SK-MEL-28 melanoma) was 30 µM, the TGI (SK-OV-3 ovarian) was 35.2 µM and the TGI (KM12 colon) was 31.4 µM. For the same compound, the TGI (SN12C renal) was 34.8 µM, the TGI (MALME-3M melanoma) was 27.4 µM and the TGI (NCI-H460 lung) was 32.3 µM. It also gave a TGI (K-562 leukemia) of over 100 µM, a TGI (OVCAR-4 ovarian) of 32.3 µM and a TGI (UO-31 renal) of 18.1 µM. The TGI (HCC-2998 colon) was 33.2 µM, the TGI (ACHN renal) was 20.2 µM and the TGI (PC-3 prostate) was 26.3 µM. The TGI (T-47D breast) was 33.3 µM, the TGI (NCI-H226 lung) was 26.7 µM and the TGI (IGROV1 ovarian) was 24.5 µM. It also gave a TGI (HCT-116 colon) of 28.7 µM, a TGI (HOP-92 NSCLC) of 11.1 µM and a TGI (MDA-MB-435) of 26.2 µM. The TGI (LOX IMVI melanoma) was 12.8 µM, the TGI (OVCAR-5 ovarian) was 29.3 µM and the TGI (A549 NSCLC) was 27.4 µM. The TGI (SF-539 CNS) was 16.1 µM, the TGI (COLO 205 colon) was 35.8 µM and the TGI (EKVX NSCLC) was 29.5 µM. For the same compound, the TGI (DU-145 prostate) was 23.1 µM, the TGI (HT29 colon) was 38.6 µM and the TGI (UACC-257 melanoma) was 28.7 µM. It also gave a TGI (HS 578T breast) of 56.6 µM, a TGI (SF-268 CNS) of 59.1 µM and a TGI (SW-620 colon) of 37.6 µM. The TGI (SNB-75 CNS) was 30.7 µM, the TGI (SK-MEL-2 melanoma) was 26.6 µM and the TGI (M14 melanoma) was 21.1 µM. It also gave a TGI (MDA-MB-231 breast) of 35.6 µM and a TGI (SR leukemia) of over 100 µM.

For `COc1ccc(C(OCC2OC(n3cnc4c(=O)n(Cc5ccccc5[N+](=O)[O-])nnc43)C(O)C2O)(c2ccccc2)c2ccc(OC)cc2)cc1` (configuration not stated), the TGI (OVCAR-8 ovarian) was over 100 µM, the TGI (SF-295 CNS) was over 100 µM and the TGI (MDA-N) was 47.6 µM. The TGI (NCI-H522 lung) was 48.9 µM, the TGI (786-0 renal) was over 100 µM and the TGI (TK-10 renal) was 64.1 µM. The TGI (HCT-15 colon) was 91.2 µM, the TGI (MOLT-4 leukemia) was 9.57 µM and the TGI (U251 CNS) was over 100 µM. For the same compound, the TGI (NCI-H23 lung) was over 90.8 µM, the TGI (CAKI-1 renal) was over 56.7 µM and the TGI (OVCAR-3 ovarian) was over 62.3 µM. The TGI (SK-MEL-5 melanoma) was over 45.5 µM, the TGI (SNB-19 CNS) was over 100 µM and the TGI (CCRF-CEM leukemia) was 20.7 µM. The TGI (MCF7 breast) was over 100 µM, the TGI (BT-549 breast) was over 100 µM and the TGI (NCI/ADR-RES ovarian) was over 100 µM. The TGI (HL-60(TB) leukemia) was 5.85 µM, the TGI (A498 renal) was 34.5 µM and the TGI (HOP-62 NSCLC) was over 100 µM. The TGI (RXF 393 renal) was over 59.5 µM, the TGI (UACC-62 melanoma) was 38.8 µM and the TGI (RPMI-8226 leukemia) was 15.7 µM. For the same compound, the TGI (SK-MEL-28 melanoma) was 69.5 µM, the TGI (SK-OV-3 ovarian) was over 100 µM and the TGI (KM12 colon) was over 92.4 µM. The TGI (SN12C renal) was 45.7 µM, the TGI (MALME-3M melanoma) was 49.2 µM and the TGI (NCI-H460 lung) was over 53.1 µM. For the same compound, the TGI (K-562 leukemia) was over 57.4 µM, the TGI (OVCAR-4 ovarian) was over 100 µM and the TGI (UO-31 renal) was over 87.4 µM. It also gave a TGI (HCC-2998 colon) of 26.9 µM, a TGI (ACHN renal) of 97.9 µM and a TGI (PC-3 prostate) of over 100 µM. It also gave a TGI (T-47D breast) of over 100 µM, a TGI (NCI-H226 lung) of 45.5 µM and a TGI (IGROV1 ovarian) of over 71.2 µM. For the same compound, the TGI (HCT-116 colon) was 13.1 µM, the TGI (HOP-92 NSCLC) was 23.2 µM and the TGI (MDA-MB-435) was over 91.4 µM. The TGI (LOX IMVI melanoma) was over 39.4 µM, the TGI (OVCAR-5 ovarian) was over 100 µM and the TGI (A549 NSCLC) was over 100 µM. It also gave a TGI (SF-539 CNS) of 34.1 µM, a TGI (COLO 205 colon) of 34.5 µM and a TGI (EKVX NSCLC) of over 100 µM. For the same compound, the TGI (DU-145 prostate) was over 100 µM, the TGI (HT29 colon) was 59.1 µM and the TGI (UACC-257 melanoma) was over 100 µM. It also gave a TGI (HS 578T breast) of over 94 µM, a TGI (SF-268 CNS) of over 100 µM and a TGI (SW-620 colon) of over 100 µM. For the same compound, the TGI (SNB-75 CNS) was over 100 µM, the TGI (SK-MEL-2 melanoma) was 60.6 µM and the TGI (M14 melanoma) was over 100 µM. For the same compound, the TGI (MDA-MB-231 breast) was over 61.8 µM and the TGI (SR leukemia) was 8.88 µM.

`COC(O)C12OC3CO[Si](C(C)C)(C(C)C)O[Si](C(C)C)(C(C)C)OC3C1Oc1nc(=O)ccn12` (configuration not stated) gave a TGI (OVCAR-8 ovarian) of 24.6 µM, a TGI (SF-295 CNS) of 24.8 µM and a TGI (MDA-N) of 26.7 µM. It also gave a TGI (NCI-H522 lung) of 18.3 µM, a TGI (786-0 renal) of 31.1 µM and a TGI (TK-10 renal) of 28.7 µM. For the same compound, the TGI (HCT-15 colon) was 30.9 µM, the TGI (MOLT-4 leukemia) was 5.78 µM and the TGI (U251 CNS) was over 48.3 µM. The TGI (NCI-H23 lung) was 28.4 µM, the TGI (CAKI-1 renal) was 33.7 µM and the TGI (OVCAR-3 ovarian) was 23.5 µM. For the same compound, the TGI (SK-MEL-5 melanoma) was 21.1 µM, the TGI (SNB-19 CNS) was 28.9 µM and the TGI (CCRF-CEM leukemia) was 18.5 µM. It also gave a TGI (MCF7 breast) of 24.8 µM, a TGI (BT-549 breast) of 29.3 µM and a TGI (NCI/ADR-RES ovarian) of 50.6 µM. The TGI (HL-60(TB) leukemia) was 13.2 µM, the TGI (A498 renal) was 32.9 µM and the TGI (HOP-62 NSCLC) was 26.9 µM. It also gave a TGI (RXF 393 renal) of 24.6 µM, a TGI (UACC-62 melanoma) of 23.4 µM and a TGI (RPMI-8226 leukemia) of 3.51 µM. For the same compound, the TGI (SK-MEL-28 melanoma) was over 100 µM, the TGI (SK-OV-3 ovarian) was 31.6 µM and the TGI (KM12 colon) was 19 µM. For the same compound, the TGI (SN12C renal) was 27.8 µM, the TGI (MALME-3M melanoma) was 26.9 µM and the TGI (NCI-H460 lung) was 23.4 µM. The TGI (K-562 leukemia) was 64.9 µM, the TGI (OVCAR-4 ovarian) was 28 µM and the TGI (UO-31 renal) was 29.3 µM. The TGI (HCC-2998 colon) was 14.9 µM, the TGI (ACHN renal) was 27.5 µM and the TGI (PC-3 prostate) was 17 µM. The TGI (T-47D breast) was 24.1 µM, the TGI (NCI-H226 lung) was 33.9 µM and the TGI (IGROV1 ovarian) was 25.6 µM. It also gave a TGI (HCT-116 colon) of 21.8 µM, a TGI (HOP-92 NSCLC) of 22 µM and a TGI (MDA-MB-435) of 26.7 µM. The TGI (LOX IMVI melanoma) was 27.9 µM, the TGI (OVCAR-5 ovarian) was 29.1 µM and the TGI (A549 NSCLC) was 26.1 µM. The TGI (SF-539 CNS) was 29.3 µM, the TGI (COLO 205 colon) was 27.3 µM and the TGI (EKVX NSCLC) was 28.7 µM. The TGI (DU-145 prostate) was 30.6 µM, the TGI (HT29 colon) was 20.5 µM and the TGI (UACC-257 melanoma) was 24.3 µM. It also gave a TGI (HS 578T breast) of 19.5 µM, a TGI (SF-268 CNS) of 26.4 µM and a TGI (SW-620 colon) of over 52.7 µM. The TGI (SNB-75 CNS) was 41.3 µM, the TGI (SK-MEL-2 melanoma) was 25.1 µM and the TGI (M14 melanoma) was 25.3 µM. It also gave a TGI (MDA-MB-231 breast) of 34 µM and a TGI (SR leukemia) of 6.98 µM.
